Assay results as given in ChEMBL document CHEMBL2346597, “Use of core modification in the discovery of CC214-2, an orally available, selective inhibitor of mTOR kinase” (Bioorg Med Chem Lett, 2013).
Each block holds one molecule with its values, some of them ahead of it. Activity calls are given as the source filed them. The calls are words filed in the database; no cut-off is given here.

Assays:
[1] = Drug uptake in tumor of CB17 SCID mouse xenografted with human PC3 cells at 30 mg/kg, po qd at 24 hrs; format: ADME, organism-based, Neoplasm, PC-3; parameters: dose 30 mg/kg, route oral; conditions: read-out: Drug uptake
[2] = Drug uptake in tumor of CB17 SCID mouse xenografted with human PC3 cells at 30 mg/kg, po qd at 8 hrs; format: ADME, organism-based, Neoplasm, PC-3; parameters: dose 30 mg/kg, route oral; conditions: read-out: Drug uptake
[3] = Drug uptake in tumor of CB17 SCID mouse xenografted with human PC3 cells at 30 mg/kg, po qd at 2 hrs; format: ADME, organism-based, Neoplasm, PC-3; parameters: dose 30 mg/kg, route oral; conditions: read-out: Drug uptake
[4] = Drug uptake in tumor of CB17 SCID mouse xenografted with human PC3 cells at 30 mg/kg, po qd at 4 hrs; format: ADME, organism-based, Neoplasm, PC-3; parameters: dose 30 mg/kg, route oral; conditions: read-out: Drug uptake
Plasma [5] = test: Free plasma concentration in CB17 SCID mouse xenografted with human PC3 cells at 30 mg/kg, po qd at 8 hrs; format: ADME, organism-based, PC-3; parameters: dose 30 mg/kg, route oral; conditions: in vivo
Plasma [6] = test: Free plasma concentration in CB17 SCID mouse xenografted with human PC3 cells at 30 mg/kg, po qd at 24 hrs; format: ADME, organism-based, PC-3; parameters: dose 30 mg/kg, route oral; conditions: in vivo
Plasma [7] = test: Free plasma concentration in CB17 SCID mouse xenografted with human PC3 cells at 30 mg/kg, po qd at 4 hrs; format: ADME, organism-based, PC-3; parameters: dose 30 mg/kg, route oral; conditions: in vivo
Plasma [8] = test: Free plasma concentration in CB17 SCID mouse xenografted with human PC3 cells at 30 mg/kg, po qd at 2 hrs; format: ADME, organism-based, PC-3; parameters: dose 30 mg/kg, route oral; conditions: in vivo
[9] = Plasma concentration in CB17 SCID mouse xenografted with human PC3 cells at 30 mg/kg, po qd at 24 hrs; format: ADME, organism-based, PC-3; parameters: dose 30 mg/kg, route oral
[10] = Plasma concentration in CB17 SCID mouse xenografted with human PC3 cells at 30 mg/kg, po qd at 4 hrs; format: ADME, organism-based, PC-3; parameters: dose 30 mg/kg, route oral
[11] = Plasma concentration in CB17 SCID mouse xenografted with human PC3 cells at 30 mg/kg, po qd at 8 hrs; format: ADME, organism-based, PC-3; parameters: dose 30 mg/kg, route oral
[12] = Plasma concentration in CB17 SCID mouse xenografted with human PC3 cells at 30 mg/kg, po qd at 2 hrs; format: ADME, organism-based, PC-3; parameters: dose 30 mg/kg, route oral
[13] = Tmax in rat at 5 mg/kg, po; format: ADME, organism-based; parameters: dose 5 mg/kg, route oral; conditions: in vivo
[14] = AUC (0 to infinity) in rat at 5 mg/kg, po; format: ADME, organism-based; parameters: time infinity, dose 5 mg/kg, route oral; conditions: plasma
[15] = Cmax in rat at 5 mg/kg, po; format: ADME, organism-based; parameters: dose 5 mg/kg, route oral; conditions: in vivo
[16] = Mean residence time in rat at 2 mg/kg, iv; format: ADME, organism-based; parameters: dose 2 mg/kg, route intravenous; conditions: in vivo
[17] = AUC (0 to infinity) in rat at 2 mg/kg, iv; format: ADME, organism-based; parameters: time infinity, dose 2 mg/kg, route intravenous; conditions: plasma
[18] = Volume of distribution at steady state in rat at 2 mg/kg, iv; format: ADME, organism-based; parameters: dose 2 mg/kg, route intravenous; conditions: in vivo, read-out: Vdss
Mus musculus [19] = test: In vivo inhibition of mTORC1 in human PC3 cells xenografted in CB17 SCID mouse assessed as inhibition of S6 phosphorylation at 30 mg/kg, po qd measured at 24 hrs relative to vehicle-treated control; format: functional; conditions: CB17, PC-3, 24 h
Mus musculus [20] = test: In vivo inhibition of mTORC1 in human PC3 cells xenografted in CB17 SCID mouse assessed as inhibition of S6 phosphorylation at 30 mg/kg, po qd after 2 to 8 hrs relative to vehicle-treated control; format: functional; conditions: CB17, PC-3
[21] = Plasma protein binding in CB17 SCID mouse xenografted with human PC3 cells at 30 mg/kg, po qd after 24 hrs; format: ADME, organism-based, PC-3; parameters: dose 30 mg/kg, route oral; conditions: read-out: PPB (converted)
Mus musculus [22] = test: Toxicity in CB17 SCID mouse xenografted with human PC3 cells at 10 to 50 mg/kg, po qd administered on day 11 post tumor implantation measured after 32 days; format: organism-based, PC-3; parameters: dose 10-50 mg/kg, route oral; conditions: in vivo
PC-3 [23] = test: Antitumor activity against human PC3 cells xenografted in CB17 SCID mouse assessed as tumor growth inhibition at 50 mg/kg, po qd administered on day 11 post tumor implantation measured after 32 days relative to vehicle-treated control; format: functional; conditions: read-out: TGI
PC-3 [24] = test: Antitumor activity against human PC3 cells xenografted in CB17 SCID mouse assessed as tumor growth inhibition at 25 mg/kg, po qd administered on day 11 post tumor implantation measured after 32 days relative to vehicle-treated control; format: functional; conditions: read-out: TGI
PC-3 [25] = test: Antitumor activity against human PC3 cells xenografted in CB17 SCID mouse assessed as tumor growth inhibition at 10 mg/kg, po qd administered on day 11 post tumor implantation measured after 32 days relative to vehicle-treated control; format: functional; conditions: read-out: TGI
[26] = Oral bioavailability in rat at 5 mg/kg; format: ADME, organism-based; conditions: in vivo
[27] = Clearance in rat at 2 mg/kg, iv; format: ADME, organism-based; parameters: dose 2 mg/kg, route intravenous; conditions: in vivo
[28] = target: Phosphatidylinositol 4,5-bisphosphate 3-kinase catalytic subunit alpha isoform (Homo sapiens, UniProt P42336); test: Inhibition of PI3Kalpha (unknown origin) by mobility shift assay
PC-3 [29] = conditions: Homo sapiens
PC-3 [30] = conditions: Homo sapiens; remark: listed apart in the source
PC-3 [31] = conditions: Homo sapiens; remark: listed apart in the source
PC-3 [32] = conditions: Homo sapiens; remark: listed apart in the source
Mus musculus [33] = test: In vivo inhibition of mTORC2 in human PC3 cells xenografted in CB17 SCID mouse assessed as inhibition of AKTS473 phosphorylation at 30 mg/kg, po qd after 2 to 8 hrs relative to vehicle-treated control; conditions: CB17, PC-3, po
Mus musculus [34] = test: In vivo inhibition of mTORC2 in human PC3 cells xenografted in CB17 SCID mouse assessed as inhibition of AKTS473 phosphorylation at 30 mg/kg, po qd measured at 24 hrs relative to vehicle-treated control; conditions: CB17, PC-3, po
PC-3 [35] = test: cells; conditions: Homo sapiens, PC-3, 72 h
[36] = Inhibition of mTORC2 in human PC3 cells assessed as inhibition of AKTS473 phosphorylation after 1 hr by sandwich immunoassay; format: cell-based; conditions: PC-3, 1 h
mTORC1 = mTORC1 (Homo sapiens, UniProt P42345); test: Inhibition of mTORC1 in human PC3 cells assessed as inhibition of S6 phosphorylation after 1 hr by sandwich immunoassay; format: cell-based, PC-3
[37] = target: Insulin receptor (Homo sapiens) (UniProt P06213); test: Inhibition of IRK1 (unknown origin) assessed as remaining activity at 10 uM relative to control
Chain of Insulin receptor (Homo sapiens) (P06213 whole entry, looked up): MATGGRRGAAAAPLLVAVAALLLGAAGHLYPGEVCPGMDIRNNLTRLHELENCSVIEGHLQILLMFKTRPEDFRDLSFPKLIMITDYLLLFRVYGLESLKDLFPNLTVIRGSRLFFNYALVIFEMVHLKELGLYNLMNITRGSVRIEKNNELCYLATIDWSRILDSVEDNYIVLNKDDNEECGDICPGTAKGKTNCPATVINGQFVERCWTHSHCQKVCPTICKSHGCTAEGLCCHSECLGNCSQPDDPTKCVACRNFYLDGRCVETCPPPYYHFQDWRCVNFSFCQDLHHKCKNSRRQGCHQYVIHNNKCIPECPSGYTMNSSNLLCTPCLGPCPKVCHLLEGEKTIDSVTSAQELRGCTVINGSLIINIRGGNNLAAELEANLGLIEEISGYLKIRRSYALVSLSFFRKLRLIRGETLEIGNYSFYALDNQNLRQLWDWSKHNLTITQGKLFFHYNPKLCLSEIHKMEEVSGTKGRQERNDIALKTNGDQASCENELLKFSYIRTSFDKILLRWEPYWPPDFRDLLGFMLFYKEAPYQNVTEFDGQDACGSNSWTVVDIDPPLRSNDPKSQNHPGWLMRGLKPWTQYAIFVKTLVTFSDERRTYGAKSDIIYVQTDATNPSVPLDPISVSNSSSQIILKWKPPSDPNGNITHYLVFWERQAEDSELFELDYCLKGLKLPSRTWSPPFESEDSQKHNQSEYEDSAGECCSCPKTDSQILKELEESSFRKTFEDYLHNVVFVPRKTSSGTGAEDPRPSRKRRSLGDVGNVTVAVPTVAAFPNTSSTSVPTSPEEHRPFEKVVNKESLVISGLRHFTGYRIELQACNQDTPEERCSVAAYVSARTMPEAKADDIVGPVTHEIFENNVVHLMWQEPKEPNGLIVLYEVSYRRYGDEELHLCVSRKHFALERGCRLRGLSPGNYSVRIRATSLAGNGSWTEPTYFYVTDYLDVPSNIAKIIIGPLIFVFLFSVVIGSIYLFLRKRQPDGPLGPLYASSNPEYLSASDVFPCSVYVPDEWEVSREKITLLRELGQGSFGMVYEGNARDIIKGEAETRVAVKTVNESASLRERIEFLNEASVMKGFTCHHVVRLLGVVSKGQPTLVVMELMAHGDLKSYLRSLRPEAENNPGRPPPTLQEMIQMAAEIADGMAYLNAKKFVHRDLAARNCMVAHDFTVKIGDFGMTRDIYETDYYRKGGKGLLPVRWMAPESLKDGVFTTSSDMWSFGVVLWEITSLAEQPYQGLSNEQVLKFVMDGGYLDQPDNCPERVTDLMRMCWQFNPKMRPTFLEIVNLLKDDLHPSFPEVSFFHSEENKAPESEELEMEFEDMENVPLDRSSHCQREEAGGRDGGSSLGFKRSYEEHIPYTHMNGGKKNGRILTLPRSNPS

Chain of Phosphatidylinositol 4,5-bisphosphate 3-kinase catalytic subunit alpha isoform (P42336 whole entry, canonical isoform): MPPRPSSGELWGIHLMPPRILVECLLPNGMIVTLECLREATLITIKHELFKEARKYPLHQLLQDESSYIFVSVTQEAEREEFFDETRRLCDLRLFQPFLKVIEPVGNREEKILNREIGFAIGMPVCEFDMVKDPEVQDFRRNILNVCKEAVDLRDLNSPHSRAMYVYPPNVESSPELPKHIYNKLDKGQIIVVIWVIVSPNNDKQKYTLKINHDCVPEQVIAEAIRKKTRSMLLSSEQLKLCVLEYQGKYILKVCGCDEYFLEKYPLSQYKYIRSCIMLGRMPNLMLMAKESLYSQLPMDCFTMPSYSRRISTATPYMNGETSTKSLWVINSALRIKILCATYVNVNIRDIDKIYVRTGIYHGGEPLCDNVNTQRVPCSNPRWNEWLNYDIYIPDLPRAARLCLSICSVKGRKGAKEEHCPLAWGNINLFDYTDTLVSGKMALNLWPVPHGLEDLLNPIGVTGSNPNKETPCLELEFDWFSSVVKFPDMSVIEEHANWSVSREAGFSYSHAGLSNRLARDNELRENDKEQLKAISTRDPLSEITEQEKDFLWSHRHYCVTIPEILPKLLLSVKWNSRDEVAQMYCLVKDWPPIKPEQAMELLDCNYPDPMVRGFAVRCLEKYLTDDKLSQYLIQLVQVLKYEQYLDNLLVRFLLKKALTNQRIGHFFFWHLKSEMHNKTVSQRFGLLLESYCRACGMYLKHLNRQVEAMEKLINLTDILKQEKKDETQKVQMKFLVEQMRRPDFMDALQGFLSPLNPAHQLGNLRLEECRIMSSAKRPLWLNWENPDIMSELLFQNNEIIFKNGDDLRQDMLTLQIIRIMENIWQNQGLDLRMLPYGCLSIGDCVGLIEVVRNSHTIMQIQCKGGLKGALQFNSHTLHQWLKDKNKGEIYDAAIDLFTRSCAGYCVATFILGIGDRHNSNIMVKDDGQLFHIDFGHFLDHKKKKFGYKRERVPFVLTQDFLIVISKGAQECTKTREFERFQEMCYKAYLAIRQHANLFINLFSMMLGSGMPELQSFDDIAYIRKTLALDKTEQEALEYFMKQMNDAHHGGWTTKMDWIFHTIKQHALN

concentration at 24 h [1]: 190 nM | concentration at 8 h [2]: 1760 nM | concentration at 2 h [3]: 4100 nM | concentration at 4 h [4]: 2870 nM | Cp(f) (Plasma [5]): 850 nM | Cp(f) (Plasma [6]): 70 nM | Cp(f) (Plasma [7]): 1860 nM | Cp(f) (Plasma [8]): 2390 nM | concentration at 24 h [9]: 190 nM | concentration at 4 h [10]: 5320 nM | concentration at 8 h [11]: 2420 nM | concentration at 2 h [12]: 6830 nM | Tmax [13]: 1.2 h | AUC(0-inf) [14]: 28 µM·h | Cmax [15]: 3300 nM | MRT [16]: 2.7 h | AUC(0-inf) [17]: 10.8 µM·h | Vd [18]: 1.3 L/kg | fraction unbound at 24 h [21]: 0.35 | bioavailability [26]: 100% | clearance [27]: 8.1 mL/min/kg | IC50 [28]: > 30 µM
Compound: CC(C)(O)c1ccc(-c2cnc3c(n2)N(CC2CCOCC2)CC(=O)N3)cn1
inhibition in vivo at 30 mg/kg (Mus musculus [19]): 43% | inhibition in vivo at 30 mg/kg (Mus musculus [20]): 87% | Activity (Mus musculus [22]): Non-toxic | inhibition in vivo at 50 mg/kg (PC-3 [23]): 84% | inhibition in vivo at 25 mg/kg (PC-3 [24]): 63% | inhibition in vivo at 10 mg/kg (PC-3 [25]): 18% | TGI (PC-3 [29]): Dose-dependent effect | TGI (PC-3 [30]): Active | TGI (PC-3 [31]): Active | TGI (PC-3 [32]): Active | inhibition in vivo at 30 mg/kg (Mus musculus [33]): 53% | inhibition in vivo at 30 mg/kg (Mus musculus [34]): 28%

bioavailability [26]: 0% | IC50 (PC-3 [35]): 0.148 µM
Compound: O=C1CN(CCC2CCOCC2)c2nc(-c3ccc(-c4nc[nH]n4)cc3)cnc2N1

bioavailability [26]: 0.85% | IC50 [36]: 0.018 µM | IC50 (mTORC1): 0.04 µM | IC50 (PC-3 [35]): 0.224 µM | activity at 10 µM [37]: 93%
Compound: O=c1[nH]c2ncc(-c3ccc(-c4nc[nH]n4)cc3)nc2n1CCC1CCOCC1

IC50 [36]: 2.55 µM | IC50 (mTORC1): 2.41 µM | IC50 [28]: > 30 µM | IC50 (PC-3 [35]): 4.18 µM
Compound: CC(C)(O)c1ccc(-c2cnc3[nH]c(=O)n(CC4CCOCC4)c3n2)cn1
